In US9642922B2, “Caspase-triggered nano-aggregation probes and methods of use” (The Board of Trustees of the Leland Stanford Junior …, priority 2013, dated 2017):
Marks after values point to notes of the source that are not given here.

What was measured:
[1] = TEM of nano-aggregates after incubation with caspase-3; format: physicochemical; conditions: after caspase-3 incubation
Protocol: FIG. 7C is a digital TEM image of nano-aggregates after incubation C-SNAF (50 μM) with recombinant human caspase-3 (4.9×10^−3 U/mL) overnight at 37° C. in caspase-3 buffer; scale bar, 1 μm.
No nano-aggregation was found in either of the control probe solutions after incubation with caspase-3.

apoptotic HeLa cells = assay: Cell uptake of tracer 1 in HeLa cells; format: cell-based, human
Protocol: HeLa cells (cultured in DMEM with 10% FBS and 1% ampicillin) were grown in a 6 well plate culture dish for 24 h. The wells were then divided into 3 groups. Group 1 wells were cultured normally for 24 h, then the medium was changed and the cells were cultured for another 24 h. Group 2 and 3 wells were cultured with 2 μM doxorubicin (DOX) for 24 h, then the medium was changed and the cells were cultured for another 24 h, group 2 in normal culture medium without doxorubicin and group 3 in normal culture medium without doxorubicin but together with 50 μM Z-VAD-FMK, a caspase-3 inhibitor.
After 48 h, 10 μCi (0.37 MBq) of 1 were added to all three groups and incubated for additional 4 h. Then the medium was removed, the cells washed 3 times with phosphate buffered saline, and 1 mL of Tryp-LETM Express was added and the cells were left for 1-2 min to allow to detach. The cell/Tryp-LE solution was counted in a gamma counter and the radioactivity was normalized to the protein concentration (determined by comparison with BSA standards in each vial.

caspase-3 = molecular target: T1, caspase-3 (Homo sapiens, UniProt P42574); assay: Incubation of PET tracer with recombinant caspase-3, radio-HPLC; format: biochemical; conditions: within 1 h, in buffer
T1 sequence (P42574 29-175 limits assumed): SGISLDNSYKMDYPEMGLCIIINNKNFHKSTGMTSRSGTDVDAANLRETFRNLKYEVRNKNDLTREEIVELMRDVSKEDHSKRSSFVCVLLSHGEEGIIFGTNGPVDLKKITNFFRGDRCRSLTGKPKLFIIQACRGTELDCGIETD
T1 sequence (P42574 176-277 limits assumed): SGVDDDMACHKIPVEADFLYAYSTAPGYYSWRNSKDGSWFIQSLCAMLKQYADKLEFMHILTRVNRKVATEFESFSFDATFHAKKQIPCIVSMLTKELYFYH
Protocol: To evaluate the activatable PET tracer 1 for caspase-3 detection, it was first incubated with recombinant caspase-3 in buffer.

HeLa tumor xenograft = assay: PET imaging of HeLa tumor xenograft-bearing nude mice; format: in vivo, mouse; conditions: for uptake ratio between tumor and muscle (T/M): treated tumors
Protocol: One group of animals was scanned at baseline (before treatment) and 4 days post treatment with 0.2 mg doxorubicin injected into the tumor. On the day of scanning, the animals were moved from their housing area to the PET scanner around 1 h prior to the experiment. They were constrained shortly in a tail veiner and injected intravenously, with 440±97 μCi (16±3 MBq) [^18F]C-SNAT formulation. They were anesthetized with 2% isoflurane shortly before placement in an R4 microPET scanner (Siemens Medical Solutions, USA). The anesthesia were continued with 2% isoflurane doing 5 min of acquisition. Scans using the control tracer 1-D (173±73 μCi/9±4 Mbq in 200 μL formulation) were carried out in a similar manner using two groups (one baseline and one treated) instead of the same animals at baseline and after treatment. The images were reconstructed using a standard 2D reconstruction without attenuation correction.
The reconstructed images were analyzed by making two volumes of interest (VOI), one on the tumor and one located on the left shoulder corresponding to muscle/bone mixture. The percent of injected dose per gram tissue (% ID/g) was calculated in each VOI and the ratio between tumor and muscle uptake was calculated based on this uptake (uptake in tumor/uptake in muscle region). The effect of treatment was calculated as the difference in uptake of [^18F]C-SNAT at baseline and after treatment.
Evaluation of activatable PET tracer 1 and control tracer 1-D for PET imaging of caspase-3 activity in vivo was performed in HeLa tumor xenograft-bearing nude mice. Tumors were implanted and grown for a minimum of 10 d before receiving intratumoral injection of 0.2 mg DOX (20 μL). 1 or 1-D (5-15 MBq/135-405 μCi) was injected through the tail vein for PET imaging 4 d post treatment. Static PET scans (5 min) were performed 65, 125 and 182 mins post tracer injection.

[2] = Ex vivo biodistribution of [18F]C-SNAT; format: in vivo, mouse; conditions: for Ratio of % ID/g over muscle ± SEM: 2 h post injection
Protocol: Mice were administered [^18F]C-SNAT (100-200 μCi/3.7-7.4 MBq in 100-200 μL of 0.9% saline solution) via tail vein injection and then euthanized by bilateral thoracotomy under anesthesia at 2 h after injection of tracer (n=3). All samples (tumor, heart, whole brain, gallbladder, kidney, liver, lung, muscle, bone, spleen, whole blood) were removed quickly following euthanasia and placed in pre-weighed test tubes. Standard solutions of the tracer were prepared by diluting approximately 100 μCi (3.7 MBq) tracer in 100 mL of water, of which 1 mL of aliquots were used for reference counting.
The test tubes containing tissue samples were weighed and the radioactivity was measured by an automated gamma counter (Cobra Model 5002, Packard, USA) along with the standard solutions.

[3] = Stability of PET tracers in mouse serum; format: in vitro ADME; conditions: 1 h incubation, 37° C.
Protocol: To the mouse serum (500 μL) 100 μL (approximately 100 μCi/3.7 MBq) of radioactive sample was added and the mixture was incubated at 37° C. At each time point, 100 μL of sample was taken and after mixing with 100 μL of acetonitrile was centrifuged at 9,400×g for 5 min. The resulting supernatants were collected, and an aliquot of each supernatant (100 μL) was diluted with 100 μL of water and analyzed via the same HPLC method used for quality control (fitted with a highly sensitive positron detector for radioactivity). The percent ratio of intact compound to the total radioactivity on the HPLC chromatogram was calculated as %=[(peak area for intact compound)/(total peak area)]×100.

Membrane Potential = conditions: cited from earlier work

SMILES: CC[N+]1=C(C=CC=CC=C2N(CCCCCC(=O)NCCCCC3NC(=O)C4CSC(=N4)c4ccc5cc(ccc5n4)OCCCNC(=O)C4CSC(=N4)c4nc5ccc(cc5s4)NC3=O)c3ccc4c(S(=O)(=O)O)cc(S(=O)(=O)O)cc4c3C2(C)C)C(C)(C)c2c1ccc1c(S(=O)(=O)[O-])cc(S(=O)(=O)O)cc21 (stereo not shown) [C-SNAF-cycl]
- average diameter of nano-aggregates (TEM) [1]: 174±44 nm

SMILES: CCSSCC(NC(=O)[C@H](CC(=O)O)NC(=O)[C@@H](NC(=O)[C@H](CCC(=O)O)NC(=O)[C@H](CC(=O)O)NC(C)=O)C(C)C)C(=O)NC(Cc1cn(CCOCC[18F])nn1)C(=O)Nc1ccc2nc(C3=N[C@@H](C(=O)NCCCOc4ccc5nc(C#N)ccc5c4)CS3)sc2c1 (stereo partly shown) [[^18F]C-SNAT]
- retained 18F activity in Dox-treated cells with caspase-3 inhibitor (apoptotic HeLa cells; Dox 2 μM plus Z-VAD-fmk): 1.3 fold
- retained 18F activity in Dox-treated versus non-treated cells (apoptotic HeLa cells; Dox 2 μM, 4 h tracer incubation): 2.2 fold
- tracer cyclized by recombinant caspase-3 (caspase-3): 90%
- uptake difference between baseline and treated (HeLa tumor xenograft; 65 min): 0.36±0.15 % ID/g
- uptake difference between baseline and treated (HeLa tumor xenograft; 182 min): 0.63±0.11 % ID/g
- uptake in tumor (HeLa tumor xenograft; DOX treated, 65 min): 1.17±0.17 % ID/g
- uptake in tumor (HeLa tumor xenograft; DOX treated, 182 min): 1.29±0.07 % ID/g
- uptake in tumor (HeLa tumor xenograft; baseline, 65 min): 0.81±0.28 % ID/g
- uptake in tumor (HeLa tumor xenograft; baseline, 182 min): 0.67±0.24 % ID/g
- Target/Background (HeLa tumor xenograft; maximum value at the apoptotic tissue): 7.0
- time course of uptake in apoptotic tumors (HeLa tumor xenograft; mouse, in vivo): trend of increasing uptake over times
- % ID/g at target site (HeLa tumor xenograft; mouse, tumor treatment, PET imaging): 1.3 ± 0.1 % ID/g
- Treated/Untreated (HeLa tumor xenograft; target uptake ratio between pre and post treatment in same animal): 1.9^b
- uptake ratio between tumor and muscle (T/M) (HeLa tumor xenograft; 65 min): 3.30 fold
- uptake ratio between tumor and muscle (T/M) (HeLa tumor xenograft; 182 min): 7.00 fold
- Ratio of % ID/g over muscle ± SEM ([2]; Bone): 2.4 ± 1.5
- Ratio of % ID/g over muscle ± SEM ([2]; Brain): 0.5 ± 0.2
- Ratio of % ID/g over muscle ± SEM ([2]; Heart): 4.5 ± 2.4
- Ratio of % ID/g over muscle ± SEM ([2]; Kidney): 124.2 ± 46.6
- Ratio of % ID/g over muscle ± SEM ([2]; Liver): 22.9 ± 9.7
- Ratio of % ID/g over muscle ± SEM ([2]; Lung): 4.1 ± 1.8
- Ratio of % ID/g over muscle ± SEM ([2]; Muscle): 1.0 ± 0.5
- Ratio of % ID/g over muscle ± SEM ([2]; Plasma): 4.0 ± 1.8
- Ratio of % ID/g over muscle ± SEM ([2]; Spleen): 1.7 ± 0.7
- Ratio of % ID/g over muscle ± SEM ([2]; Tumor): 5.6 ± 2.3
- Ratio of % ID/g over muscle ± SEM ([2]; Whole Blood): 5.1 ± 2.4
- crossing of the blood-brain barrier ([2]; low uptake in brain tissue, 120 minutes post injection): could not cross the blood-brain barrier
- intact tracer in mouse serum [3]: 60%

SMILES: CC(CCCCC[18F])(C(=O)O)C(=O)O [[^18F]ML-10]
- % ID/g at target site (Membrane Potential; PET imaging, cerebral stroke): 0.3 ± 0.1 % ID/g
- Treated/Untreated (Membrane Potential; stroke and non-stroke region in same animal): 2.3^f
